For orientation: IC50 means the concentration that gives 50% inhibition.

The text below walks through data of patent publication US10011595B2 (Merck Sharp & Dohme Corp., priority 2014, dated 2018).

For this experiment, the target named is human orexin-2 receptor (Homo sapiens (Human), UniProt O43614). Put plainly: FLIPR Ca2+ Flux Assay, orexin-2 receptor. The class given is cell-based. Conditions: CHO cells expressing the human orexin-2 receptor; agonist 70 pM Ala-6,12 orexin-A; read-out: hOX2R FLIPR IC50. The protocol: In a typical experiment the OX1 and OX2 receptor antagonistic activity of the compounds of the present invention was determined in accordance with the following experimental method. For intracellular calcium measurements, Chinese hamster ovary (CHO) cells expressing the rat orexin-1 receptor or the human orexin-2 receptor, are grown in Iscove's modified DMEM containing 2 mM L-glutamine, […], 1% hypoxanthine-thymidine supplement, 100 U/ml penicillin, 100 μg/ml streptomycin and 10% heat-inactivated fetal calf serum (FCS). The cells are seeded at 20,000 cells/well into Becton-Dickinson black 384-well clear bottom sterile plates coated with poly-D-lysine. All reagents were from GIBCO-Invitrogen Corp. The seeded plates are incubated overnight at 37° C. and 5% CO2. Ala-6,12 human orexin-A as the agonist is prepared as a 1 mM stock solution in 1% bovine serum albumin (BSA) and diluted in assay buffer (HBSS containing 20 mM HEPES, 0.1% BSA and 2.5 mM probenecid, pH7.4) for use in the assay at a final concentration of 70 pM. Test compounds are prepared as 10 mM stock solution in DMSO, then diluted in 384-well plates, first in DMSO, then assay buffer. On the day of the assay, cells are washed 3 times with 100 μl assay buffer and then incubated for 60 min (37° C., 5% CO2) in 60 μl assay buffer containing 1 μM Fluo-4AM ester, 0.02% pluronic acid, and 1% BSA. The dye loading solution is then aspirated and cells are washed 3 times with 100 μl assay buffer. 30 μl of that same buffer is left in each well. Within the Fluorescent Imaging Plate Reader (FLIPR, Molecular Devices), test compounds are added to the plate in a volume of 25 μl, incubated for 5 min and finally 25 μl of agonist is added. Fluorescence is measured for each well at 1 second intervals for 5 minutes and the height of each fluorescence peak is compared to the height of the fluorescence peak induced by 70 pM Ala-6,12 orexin-A with buffer in place of antagonist. For each antagonist, IC50 value (the concentration of compound needed to inhibit 50% of the agonist response) is determined. Alternatively, compound potency can be assessed by a radioligand binding assay (described in Bergman et. al. Bioorg. Med. Chem. Lett. 2008, 18, 1425-1430) in which the inhibition constant (Ki) is determined in membranes prepared from CHO cells expressing either the OX1 or OX2 receptor. The intrinsic orexin receptor antagonist activity of a compound which may be used in the present invention may be determined by these assays.
human orexin-2 receptor, sequence (O43614 whole entry): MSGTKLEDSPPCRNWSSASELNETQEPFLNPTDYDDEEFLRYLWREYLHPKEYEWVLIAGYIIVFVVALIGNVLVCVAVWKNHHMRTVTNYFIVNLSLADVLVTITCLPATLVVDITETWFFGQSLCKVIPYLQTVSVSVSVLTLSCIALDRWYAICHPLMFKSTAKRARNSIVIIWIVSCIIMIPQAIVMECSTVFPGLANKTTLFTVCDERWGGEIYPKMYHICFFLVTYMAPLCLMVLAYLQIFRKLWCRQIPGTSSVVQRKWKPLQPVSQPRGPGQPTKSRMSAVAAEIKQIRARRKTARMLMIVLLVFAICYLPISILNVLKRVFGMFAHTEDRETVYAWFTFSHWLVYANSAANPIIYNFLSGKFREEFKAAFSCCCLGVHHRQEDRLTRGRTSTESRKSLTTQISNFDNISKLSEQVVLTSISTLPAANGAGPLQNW
In general terms: Calcium flux is commonly read through the fluorescence of an indicator in the cells.

As for `CCN(CCN(C)c1cccc(C(C)(C)O)n1)C(=O)c1ccccc1OC(F)(F)F` [Example I-12, N-ethyl-N-(2-((6-(2-hydroxypropan-2-yl)pyridin-2-yl)(methyl)amino)ethyl)-2-(trifluoromethoxy)benzamide], the IC50 turned out to be 0.0737 µM. As to `CCN(CCN(C)c1nc(C)cc(C)n1)C(=O)c1ccccc1-n1cccn1` [Example B-14, N-(2-((4,6-dimethylpyrimidin-2-yl)(methyl)amino)ethyl)-N-ethyl-2-(1H-pyrazol-1-yl)benzamide], the IC50 was 0.0139 µM. Consider `CCN(CCN(C)c1cc(C#N)ccn1)C(=O)c1ccccc1-n1ccnc1` [Example F-9, N-{2-[(4-cyanopyridin-2-yl)(methyl)amino]ethyl}-N-ethyl-2-(1H-imidazol-1-yl)benzamide], for which the IC50 was 10 µM. The value for `CCN(CCN(C)c1nc(C)cc(C)n1)C(=O)c1cccnc1OCC(F)F` [Example B-10, 2-(2,2-difluoroethoxy)-N-(2-((4,6-dimethylpyrimidin-2-yl)(methyl)amino)ethyl)-N-ethylnicotinamide] was 0.0406 µM; that for `CCN(CCNc1nc(C)cc(C)n1)C(=O)c1ccccc1-n1nccn1` [Example A-5, N-(2-((4,6-dimethylpyrimidin-2-yl)amino)ethyl)-N-ethyl-2-(2H-1,2,3-triazol-2-yl)benzamide] was 1.76 µM; that for `CCN(CCN(C)c1cc(C#N)ccn1)C(=O)c1cccc2oc(=O)[nH]c12` [Example F-23, N-{2-[(4-cyanopyridin-2-yl)(methyl)amino]ethyl}-N-ethyl-2-oxo-2,3-dihydro-1,3-benzoxazole-4-carboxamide] was 10 µM. `CCN(CCN(C)c1cccc(C(C)(C)O)n1)C(=O)c1ccccc1-n1nccn1` [Example I-1, N-ethyl-N-(2-((6-(2-hydroxypropan-2-yl)pyridin-2-yl)(methyl)amino)ethyl)-2-(2H-1,2,3-triazol-2-yl)benzamide]: the IC50 was 0.0124 µM. In the case of `CCN(CCN(C)c1nccc(C(C)(C)O)n1)C(=O)c1cccnc1-n1cccn1` [Example H-33, N-ethyl-N-[2-[[4-(1-hydroxy-1-methyl-ethyl)pyrimidin-2-yl]-methyl-amino]ethyl]-2-pyrazol-1-yl-pyridine-3-carboxamide], the concentration for half-maximal inhibition (IC50) came to 0.037 µM. As for `CC(C)N(CCN(C)c1cc(C#N)ccn1)C(=O)c1ccccc1-n1nccn1` [Example G-9, N-(2-((4-cyanopyridin-2-yl)(methyl)amino)ethyl)-N-isopropyl-2-(2H-1,2,3-triazol-2-yl)benzamide], the half-inhibitory concentration (IC50) came to 0.0765 µM. The result for `CCN(CCN(C)c1nccc(C(C)(C)O)n1)C(=O)c1ncccc1-c1ccccc1` [Example H-31, N-ethyl-N-(2-((4-(2-hydroxypropan-2-yl)pyrimidin-2-yl)(methyl)amino)ethyl)-3-phenylpicolinamide] reads 0.023 µM; that for `CCCc1ccccc1C(=O)N(CC)CCN(C)c1nccc(C(C)(C)O)n1` [Example H-19, N-ethyl-N-(2-((4-(2-hydroxypropan-2-yl)pyrimidin-2-yl)(methyl)amino)ethyl)-2-propylbenzamide], 0.0131 µM; that for `CCN(CCN(C)c1nccc(C(C)(C)O)n1)C(=O)c1cccnc1OCC(F)F` [Example H-16, 2-(2,2-difluoroethoxy)-N-ethyl-N-(2-((4-(2-hydroxypropan-2-yl)pyrimidin-2-yl)(methyl)amino)ethyl) nicotinamide], 0.0242 µM. In the case of `CCN(CCN(C)c1nc(C)cc(C)n1)C(=O)c1ccccc1OC(F)(F)F` [Example B-7, N-(2-((4,6-dimethylpyrimidin-2-yl)(methyl)amino)ethyl)-N-ethyl-2-(trifluoromethoxy)benzamide], the IC50 is 0.0094 µM. For the compound `CCN(CCN(C)c1cc(C#N)ccn1)C(=O)c1c(F)cccc1-n1ccnn1` [Example F-17, N-{2-[(4-cyanopyridin-2-yl)(methyl)amino]ethyl}-N-ethyl-2-fluoro-6-(1H-1,2,3-triazol-1-yl)benzamide], the 50% inhibitory concentration (IC50) was determined as 0.945 µM. For `CCN(CCN(C)c1cc(C#N)ccn1)C(=O)c1ccccc1C1(C#N)CCOCC1` [Example F-10, N-{2-[(4-cyanopyridin-2-yl)(methyl)amino]ethyl}-2-(4-cyanotetrahydro-2H-pyran-4-yl)-N-ethylbenzamide], the half-maximal inhibitory concentration (IC50) was 7.2 µM. `CCN(CCN(C)c1nccc(C(C)(C)O)n1)C(=O)c1ncccc1-n1nccn1` [Example H-34, N-ethyl-N-[2-[[4-(1-hydroxy-1-methyl-ethyl)pyrimidin-2-yl]-methyl-amino]ethyl]-3-(triazol-2-yl)pyridine-2-carboxamide]: the IC50 came out at 0.043 µM. For the compound `CCN(CCN(C)c1cc(C#N)ccn1)C(=O)c1ccccc1-c1nc(C)no1` [Example F-27, N-{2-[(4-cyanopyridin-2-yl)(methyl)amino]ethyl}-N-ethyl-2-(3-methyl-1,2,4-oxadiazol-5-yl)benzamide], the IC50 turned out to be 0.024 µM. On to `CCN(CCN(C)c1nc(C)cc(C)n1)C(=O)c1ccccc1-n1nccn1` [Example A-1, N-(2-((4,6-dimethylpyrimidin-2-yl)(methyl)amino)ethyl)-N-ethyl-2-(2H-1,2,3-triazol-2-yl)benzamide], for which the concentration for half-maximal inhibition (IC50) came to 0.0365 µM.

With `CCN(CCN(C)c1cc(C#N)ccn1)C(=O)c1ccccc1OC(F)(F)F` [Example F-1, {2-[(4-cyanopyridin-2-yl)(methyl)amino]ethyl}-N-ethyl-2-(trifluoromethoxy)benzamide], the IC50 was 0.0582 µM.

In the case of `CCN(CCN(C)c1cccc(C(C)(C)O)n1)C(=O)c1ccccc1OCC(F)F` [Example I-4, 2-(2,2-difluoroethoxy)-N-ethyl-N-(2-((6-(2-hydroxypropan-2-yl)pyridin-2-yl)(methyl)amino)ethyl)benzamide], the half-inhibitory concentration (IC50) came to 0.179 µM. With `CCN(CCN(C)c1cccc(C#N)n1)C(=O)c1ccccc1-n1nccn1` [Example E-22, N-{2-[(6-cyanopyridin-2-yl)(methyl)amino]ethyl}-N-ethyl-2-(2H-1,2,3-triazol-2-yl)benzamide], the IC50 amounted to 0.569 µM.

For `CCN(CCN(C)c1cccc(C(C)(C)O)n1)C(=O)c1cccnc1OCC(F)(F)F` [Example I-15, N-ethyl-N-(2-((6-(2-hydroxypropan-2-yl)pyridin-2-yl)(methyl)amino)ethyl)-2-(2,2,2-trifluoroethoxy)nicotinamide], the IC50 was determined as 0.306 µM. The result for `CCN(CCN(C)c1cc(C#N)ccn1)C(=O)c1ccccc1N1CCCC1` [Example F-22, N-{2-[(4-cyanopyridin-2-yl)(methyl)amino]ethyl}-N-ethyl-2-pyrrolidin-1-ylbenzamide] reads 0.0318 µM. On to `CCN(CCN(C)c1cc(C#N)ccn1)C(=O)c1ccccc1-n1ccnn1` [Example F-28, N-{2-[(4-cyanopyridin-2-yl)(methyl)amino]ethyl}-N-ethyl-2-(1H-1,2,3-triazol-1-yl)benzamide], for which the IC50 came out at 0.461 µM. For the compound `CCN(CCN(C)c1cc(C#N)ccn1)C(=O)c1ccc(OCC(F)(F)F)nc1` [Example F-31, N-{2-[(4-cyanopyridin-2-yl)(methyl)amino]ethyl}-N-ethyl-6-(2,2,2-trifluoroethoxy)pyridine-3-carboxamide], the concentration for half-maximal inhibition (IC50) turned out to be 10 µM. `CCN(CCN(C)c1cccc(C(C)(C)O)n1)C(=O)c1cccnc1-n1cccn1` [Example I-24, N-ethyl-N-(2-((6-(2-hydroxypropan-2-yl)pyridin-2-yl)(methyl)amino)ethyl)-2-(1H-pyrazol-1-yl)nicotinamide]: the half-inhibitory concentration (IC50) amounted to 0.104 µM. As to `CCN(CCN(C)c1nc(C)cc(C)n1)C(=O)c1nccnc1N1CCCC1` [Example B-25, N-{2-[(4,6-dimethylpyrimidin-2-yl)(methyl)amino]ethyl}-N-ethyl-3-pyrrolidin-1-ylpyrazine-2-carboxamide], the half-maximal inhibitory concentration (IC50) was found to be 0.324 µM.

As to `CCN(CCN(C)c1nc(C)cc(C)n1)C(=O)c1ccccc1C1CCC1` [Example B-26, 2-cyclobutyl-N-{2-[(4,6-dimethylpyrimidin-2-yl)(methyl)amino]ethyl}-N-ethylbenzamide], the IC50 stood at 0.0204 µM. Consider `CCN(CCN(C)c1nc(C)cc(C)n1)C(=O)c1nccnc1-n1nccn1` [Example B-15, N-(2-((4,6-dimethylpyrimidin-2-yl)(methyl)amino)ethyl)-N-ethyl-3-(2H-1,2,3-triazol-2-yl)pyrazine-2-carboxamide], for which the 50% inhibitory concentration (IC50) stood at 1.27 µM. Consider `CCN(CCN(C)c1nccc(C(C)(C)O)n1)C(=O)c1ccccc1C1CC1(F)F` (stereo not drawn) [Example H-26, 2-(2,2-difluorocyclopropyl)-N-ethyl-N-(2-((4-(2-hydroxypropan-2-yl)pyrimidin-2-yl)(methyl)amino)ethyl) benzamide], for which the IC50 is 0.0169 µM.
